Tested on: mitochondrial membrane potential
Test: Mitochondrial membrane potential with fluorescent dye JC-1
Type: cell-based, mouse
Conditions: microscopy; FIG. 15
Text: For MA-Cell, and CPC prepared in Example 1, the mitochondrial membrane potential was examined using fluorescent dye JC-1 (Invitrogen) in accordance with manufacturer's protocol. JC-1 emits red fluorescence with a wavelength of 590 nm when accumulating on polarized mitochondria, and JC-1 is diffused into the cytoplasm to emit green fluorescence with a wavelength of 529 nm when mitochondria are depolarized (the membrane potential is eliminated).
Further, for 19 cells for each of MA-Cell and CPC, a ratio of the fluorescence intensity of polarized mitochondria (red, Dimer) to the fluorescence intensity of depolarized mitochondria (green, Monomer) (Dimer/Monomer ratio) was calculated (FIG. 16).

Which “JC-1 red fluorescence (polarized mitochondria)” value does the source give for `N#CC(C#N)=NNc1ccc(OC(F)(F)F)cc1` [FCCP] here?
Its value is “red fluorescence was substantially eliminated”.

— US20200032214A1, “METHOD FOR PRODUCING MYOCARDIAL STEM CELL USED FOR TREATMENT AND/OR PREVENTION OF CARDIAC ARREST” (LUCA Science Inc., priority 2016, published 2020)
